Measurements: patent publication US10174053B2, “2 substituted cephem compounds” (Glaxo Group Limited, priority 2012, dated 2019)
Values after ≈ are worked out from the molar mass of the structure shown.

Tests used:
Experiment in all cases: In vitro antimicrobial activity, MIC by broth microdilution (CLSI)
Type in all cases: cell-based
K. pneumoniae SR01358 = details: Klebsiella pneumoniae, SR01358; KPC-2, ESBL and KPC-type carbapenemase producing strain; 5×10^5 cfu/mL; cation-adjusted Iso-Sensitest broth containing human Apo-transferrin; read-out: Minimum Inhibitory Concentration (MIC) K. pneumoniae SR01358
Method: (§1) Compound (I) of the invention was evaluated for in vitro antimicrobial activity thereof.
(§2) Measurement of Minimum Inhibitory Concentration (MIC: μg/mL) was conducted according to CLSI (Clinical and Laboratory Standards Institute) method, and the amount of bacteria for inoculation was 5×10^5 cfu/mL, and cation-adjusted Iso-Sensitest broth containing human Apo-transferrin was used as a test medium, and the experiment was conducted using broth microdilution method. The bacteria used are listed below.

E. Coli JMI1890 = details: Escherichia coli; PER-1, TEM-1, ESBL producing strain; 5×10^5 cfu/mL; cation-adjusted Iso-Sensitest broth containing human Apo-transferrin; read-out: Minimum Inhibitory Concentration (MIC) E. Coli JMI:1890
Method: as §1, §2

A. baumannii JMI2346 = details: Acinetobacter baumannii, JMI2346; OXA-51, TEM, ESBL and OXA-type carbapenemase producing strain; 5×10^5 cfu/mL; cation-adjusted Iso-Sensitest broth containing human Apo-transferrin; read-out: Minimum Inhibitory Concentration (MIC) A. baumannii JMI:2346
Method: as §1, §2

A. baumannii JMI7 = details: Acinetobacter baumannii, JMI7; PER-1, OXA-23, 51, ESBL and OXA-type carbapenemase producing strain; 5×10^5 cfu/mL; cation-adjusted Iso-Sensitest broth containing human Apo-transferrin; read-out: Minimum Inhibitory Concentration (MIC) A. baumannii JMI:7
Method: as §1, §2

SMILES	MIC (K. pneumoniae SR01358)	MIC (E. Coli JMI1890)	MIC (A. baumannii JMI2346)	MIC (A. baumannii JMI7)
C[C@@H]1S[C@@H]2[C@H](NC(=O)/C(=N\OC(C)(C)C(=O)[O-])c3csc(N)n3)C(=O)N2C(C(=O)[O-])=C1C[N+]1(CCNC(=O)C(=O)c2ccc(O)c(O)c2Cl)CCCC1.[Na+] [Compound I-74]	≤ 0.031 µg/mL	0.25 µg/mL	4 µg/mL	0.25 µg/mL
C[C@@H]1S[C@@H]2[C@H](NC(=O)/C(=N\OC(C)(C)C(=O)[O-])c3csc(N)n3)C(=O)N2C(C(=O)[O-])=C1C[N+]12CCC(CC1)N(C(=O)C(=O)c1ccc(O)c(O)c1Cl)CC2.[Na+] [Compound I-75]	≤ 0.031 µg/mL	0.125 µg/mL	4 µg/mL	0.25 µg/mL
C[C@@H]1S[C@@H]2[C@H](NC(=O)/C(=N\OC(C)(C)C(=O)[O-])c3csc(N)n3)C(=O)N2C(C(=O)[O-])=C1C[N+]12CCC[C@H]1CN(C(=O)C(=O)c1ccc(O)c(O)c1Cl)CC2.[Na+] (some centres unmarked) [Compound I-76]	≤ 0.031 µg/mL	0.25 µg/mL	4 µg/mL	0.5 µg/mL
C[C@@H]1S[C@@H]2[C@H](NC(=O)/C(=N\OC(C)(C)C(=O)[O-])c3csc(N)n3)C(=O)N2C(C(=O)[O-])=C1C[N+]1(C)[C@@H]2CC[C@H]1C[C@@H](N1C(=O)c3cc(O)c(O)cc3C1=O)C2.[Na+] (some centres unmarked) [Compound I-77]	≤ 0.031 µg/mL	0.25 µg/mL	1 µg/mL	0.5 µg/mL
C[C@@H]1S[C@@H]2[C@H](NC(=O)/C(=N\OC(C)(C)C(=O)[O-])c3csc(N)n3)C(=O)N2C(C(=O)[O-])=C1C[N+]12CCC(CNC(=O)C(=O)c3cc(O)c(O)c(F)c3)(CC1)CC2.[Na+] [Compound I-81]	≤ 0.031 µg/mL	0.5 µg/mL	8 µg/mL	2 µg/mL
C[C@@H]1S[C@@H]2[C@H](NC(=O)/C(=N\OC(C)(C)C(=O)[O-])c3csc(N)n3)C(=O)N2C(C(=O)[O-])=C1C[N@+]1(C)[C@@H]2CC[C@H]1C[C@@H](NC(=O)C(=O)c1cc(O)c(O)c(F)c1)C2.[Na+] [Compound I-83]	≤ 0.031 µg/mL	0.063 µg/mL	2 µg/mL	0.5 µg/mL
C[C@@H]1S[C@@H]2[C@H](NC(=O)/C(=N\OC(C)(C)C(=O)[O-])c3csc(N)n3)C(=O)N2C(C(=O)[O-])=C1C[N+]1(CCNC(=O)C(=O)c2cc(O)c(O)c(F)c2)CCCC1.[Na+] [Compound I-84]	≤ 0.031 µg/mL	2 µg/mL	16 µg/mL	1 µg/mL
C[C@@H]1S[C@@H]2[C@H](NC(=O)/C(=N\OC(C)(C)C(=O)[O-])c3csc(N)n3)C(=O)N2C(C(=O)[O-])=C1C[N+]12CCC[C@H]1CN(C(=O)C(=O)c1cc(O)c(O)c(F)c1)CC2.[Na+] (some centres unmarked) [Compound I-85]	0.25 µg/mL	0.5 µg/mL	8 µg/mL	2 µg/mL
C[C@@H]1S[C@@H]2[C@H](NC(=O)/C(=N\OC(C)(C)C(=O)[O-])c3csc(N)n3)C(=O)N2C(C(=O)O)=C1C[N+]1(CCNC(=O)c2cn(C3CC3)c3cc(O)c(O)c(Cl)c3c2=O)CCCC1 [Compound I-90]	≤ 0.031 µg/mL	1 µg/mL (≈ 1.14 µM)	8 µg/mL (≈ 9.16 µM)	0.5 µg/mL (≈ 0.572 µM)
C[C@@H]1S[C@@H]2[C@H](NC(=O)/C(=N\OC(C)(C)C(=O)[O-])c3csc(N)n3)C(=O)N2C(C(=O)O)=C1C[N+]12CCC(CNC(=O)/C(=N\O)c3ccc(O)c(O)c3)(CC1)CC2 [Compound I-92]	0.125 µg/mL (≈ 0.156 µM)	2 µg/mL (≈ 2.5 µM)	16 µg/mL (≈ 20 µM)	4 µg/mL (≈ 4.99 µM)
C[C@@H]1S[C@@H]2[C@H](NC(=O)/C(=N\OC(C)(C)C(=O)[O-])c3csc(N)n3)C(=O)N2C(C(=O)O)=C1C[N+]12CCC(CNC(=O)/C(=N\O)c3ccc(O)c(O)c3Cl)(CC1)CC2 [Compound I-94]	0.063 µg/mL (≈ 0.0754 µM)	0.5 µg/mL (≈ 0.599 µM)	4 µg/mL (≈ 4.79 µM)	1 µg/mL (≈ 1.2 µM)
CO/N=C(\C(=O)NCC12CC[N+](CC3=C(C(=O)O)N4C(=O)[C@@H](NC(=O)/C(=N\OC(C)(C)C(=O)[O-])c5csc(N)n5)[C@H]4S[C@H]3C)(CC1)CC2)c1ccc(O)c(O)c1Cl [Compound I-96]	≤ 0.031 µg/mL	0.125 µg/mL (≈ 0.147 µM)	8 µg/mL (≈ 9.42 µM)	1 µg/mL (≈ 1.18 µM)
C[C@@H]1S[C@@H]2[C@H](NC(=O)/C(=N\OC(C)(C)C(=O)[O-])c3csc(N)n3)C(=O)N2C(C(=O)O)=C1C[N+]12CCC(CNC(=O)/C(=N\OCC(=O)O)c3ccc(O)c(O)c3Cl)(CC1)CC2 [Compound I-98]	≤ 0.031 µg/mL	0.063 µg/mL (≈ 0.0705 µM)	4 µg/mL (≈ 4.48 µM)	0.5 µg/mL (≈ 0.56 µM)
C[C@@H]1S[C@@H]2[C@H](NC(=O)/C(=N\OC(C)(C)C(=O)O)c3csc(N)n3)C(=O)N2C(C(=O)O)=C1C[N+]12CCC(CNC(=O)/C(=N\OC(C)(C)C(=O)[O-])c3ccc(O)c(O)c3Cl)(CC1)CC2 [Compound I-99]	≤ 0.031 µg/mL	1 µg/mL (≈ 1.09 µM)	16 µg/mL (≈ 17.4 µM)	2 µg/mL (≈ 2.17 µM)
C[C@@H]1S[C@@H]2[C@H](NC(=O)/C(=N\OC(C)(C)C(=O)[O-])c3csc(N)n3)C(=O)N2C(C(=O)O)=C1C[N+]12CCC(CNC(=O)c3ccc(O)c(O)c3Cl)(CC1)C2 [Compound I-100]	0.063 µg/mL (≈ 0.0809 µM)	0.125 µg/mL (≈ 0.161 µM)	1 µg/mL (≈ 1.28 µM)	0.5 µg/mL (≈ 0.642 µM)
C[C@@H]1S[C@@H]2[C@H](NC(=O)/C(=N\OC(C)(C)C(=O)[O-])c3csc(N)n3)C(=O)N2C(C(=O)O)=C1C[N+]12CCC(CNC(=O)/C(=N\OCC(=O)O)c3ccc(O)c(O)c3Cl)(CC1)C2 [Compound I-101]	≤ 0.031 µg/mL	0.063 µg/mL (≈ 0.0716 µM)	0.5 µg/mL (≈ 0.569 µM)	0.25 µg/mL (≈ 0.284 µM)
C[C@@H]1S[C@@H]2[C@H](NC(=O)/C(=N\OC(C)(C)C(=O)[O-])c3csc(N)n3)C(=O)N2C(C(=O)O)=C1C[N+]12CCC(CNC(=O)/C(=N\O)c3ccc(O)c(O)c3Cl)(CC1)C2 [Compound I-102]	≤ 0.031 µg/mL	0.125 µg/mL (≈ 0.152 µM)	2 µg/mL (≈ 2.44 µM)	0.5 µg/mL (≈ 0.609 µM)
CO/N=C(\C(=O)NCC12CC[N+](CC3=C(C(=O)O)N4C(=O)[C@@H](NC(=O)/C(=N\OC(C)(C)C(=O)[O-])c5csc(N)n5)[C@H]4S[C@H]3C)(CC1)C2)c1ccc(O)c(O)c1Cl [Compound I-104]	≤ 0.031 µg/mL	0.125 µg/mL (≈ 0.15 µM)	1 µg/mL (≈ 1.2 µM)	1 µg/mL (≈ 1.2 µM)
C[C@@H]1S[C@@H]2[C@H](NC(=O)/C(=N\OC(C)(C)C(=O)[O-])c3csc(N)n3)C(=O)N2C(C(=O)[O-])=C1C[N+]12CCC(CNC(=O)C(=O)c3ccc(O)c(O)c3)(CC1)CC2.[Na+] [Compound I-107]	≤ 0.031 µg/mL	0.5 µg/mL	4 µg/mL	2 µg/mL
C[C@@H]1S[C@@H]2[C@H](NC(=O)/C(=N\OC(C)(C)C(=O)[O-])c3csc(N)n3)C(=O)N2C(C(=O)[O-])=C1C[N+]12CCC(CC1)N(C(=O)C(=O)c1ccc(O)c(O)c1)CC2.[Na+] [Compound I-108]	≤ 0.031 µg/mL	0.5 µg/mL	2 µg/mL	0.5 µg/mL
C[C@@H]1S[C@@H]2[C@H](NC(=O)/C(=N\OC(C)(C)C(=O)[O-])c3csc(N)n3)C(=O)N2C(C(=O)[O-])=C1C[N+]1(CCNC(=O)C(=O)c2ccc(O)c(O)c2)CCCC1.[Na+] [Compound I-109]	0.063 µg/mL	0.5 µg/mL	8 µg/mL	1 µg/mL
C[C@@H]1S[C@@H]2[C@H](NC(=O)/C(=N\OC(C)(C)C(=O)[O-])c3csc(N)n3)C(=O)N2C(C(=O)[O-])=C1C[N+]12CCC(Cn3ncc4c(Cl)c(O)c(O)cc4c3=O)(CC1)CC2.[Na+] [Compound I-113]	≤ 0.031 µg/mL	0.25 µg/mL	4 µg/mL	0.25 µg/mL
C[C@@H]1S[C@@H]2[C@H](NC(=O)/C(=N\OC(C)(C)C(=O)[O-])c3csc(N)n3)C(=O)N2C(C(=O)[O-])=C1C[N+]12CCC(CNN3C(=O)c4cc(O)c(O)c(Cl)c4C3=O)(CC1)CC2.[Na+] [Compound I-114]	≤ 0.031 µg/mL	0.125 µg/mL	4 µg/mL	0.5 µg/mL
